Reference: article PMC7759686, “Pharmacokinetics and Immunological Effects of Romidepsin in Rhesus Macaques” (Frontiers in Immunology, 2020)

Key:
[1] = Serum chemistries (hepato-, nephro- and general toxicity markers); assay type: in vivo, rhesus macaques (Macaca mulatta); settings: 3 RMs, 7 mg/m^2
Source text: (§1) Complete blood counts (CBCs) and serum chemistries were monitored in the collected samples from both the RMD-treated RMs and control RMs by either the Marshfield Laboratories (Cleveland, OH), IDEXX Reference Laboratories (IDEXX Laboratories, Inc, Westbrook, ME) or in house, using a ProCyte Hematology Analyzer (IDEXX Laboratories, Inc).

[2] = human, in vivo; cited from earlier work
[3] = penetration into CSF; cited from earlier work
Description: The brain is also a key HIV reservoir ([71]–[73]). […] At 2 h postinfusion, the plasma concentration was 19.9 ng/ml (37.6nM). Assuming a 2% penetration, this would h ...

[4] = tested on: circulating lymphocytes, T cells, B cells and neutrophils; experiment: Immune cell counts in blood (CBC, TruCount flow cytometry); assay type: in vivo, rhesus macaques (Macaca mulatta); settings: for CD8+ T cells in blood: baseline 1,047; for CD4+ T cells in blood: baseline 2,518; for total circulating lymphocytes: baseline 5,050, 3 RMs, 7 mg/m^2
Description: Figure 1 illustrates the sampling schedule. […] Intestinal biopsies were taken at 13 days prior to infusion; intestinal resections were taken at 30 days before infusion and 1 day postinfusion; LNs were collected at 30 and 13 days prior to infusion, 6 h postinfusion, and 1 and 7 days postinfusion. The samples collected during the first round of RMD treatment were used for immune population dynamics and functionality.
as §1
Whole blood was stained to monitor the impact of RMD on the immune cell populations. TruCount was used to determine absolute counts of CD3^+, CD4^+, CD8^+ T cells and CD20^+ B cells as described ([51]–[53]). Fifty microliters of whole blood were stained with antibodies against CD3-V450, CD4-APC, CD20-APC-H7, and CD45-PerCP in TruCount tubes (BD Biosciences, Franklin Lakes, NJ, USA) with a set number of fluorescent beads as internal standards. CD8^+ T cell counts were assessed through the ratio of CD8^+ to CD3^+ T cells. Whole blood was also stained with combinations of the following fluorescently labeled antibodies: CD3-V450 (SP34-2), CD4-APC (L200), CD8-PE-CF594 (RPA-T8), CD14-PE-Cy7 (M5E2), CD38-FITC (AT-1) (Stemcell, Vancouver, BC, CA), CD20-APC-H7 (2H7), CD69-APC-Cy7 (FN50), CD95-FITC (DX2), CCR5-PE (3A9), Annexin V-FITC, HLA-DR-PE-Cy7 (L243), NKG2A-PE (Z199) (Beckman Coulter, Pasadena, CA), Strepavidin-Alexa Fluor 750 (Life Technologies, Carlsbad, CA), Biotin-CCR7 (eBioscience, San Diego, CA), LIVE/DEAD Fixable Blue Dead Cell Stain Kit (Thermo Fisher Scientific); all antibodies were from BD Biosciences unless otherwise noted. For Ki-67-PE (B56) intracellular staining, cells were fixed and permeabilized prior to Ki-67 staining. Data were acquired with a LSR-II flow cytometer (BD Biosciences) or Fortessa flow cytometer (BD Biosciences) and analyzed with FlowJo software 10.7.0 (Treestar, Ashland, OR), as described ([51], [54]).

[5] = tested on: PBMCs; experiment: In vitro RMD impact on cell surface markers of PBMCs; assay type: cell-based, rhesus macaques; settings: for CD3 expression (% of cells) on PBMCs: n = 3
Description: To assess the RMD impact on the expression of cellular and homing markers, fresh PBMCs collected from 3 SIV-naïve RMs were subjected to either no RMD treatment or escalating doses of RMD (2, 10, and 20 ng/ml). The PBMCs were incubated with RMD in RPMI1640 supplemented with 1% Penicillin/Streptomycin, 1% HEPES buffer, 1% L-glutamine, and 5% heat-inactivated bovine calf serum for 0, 1, 2, or 5 days. PBMCs were then stained with CD3-V500, CD4-Alexa Flour 700 (L200), CD8-PE-CF594, CCR4-PE-Cy7 (1G1), CCR5-APC (3AP), CCR7-PE (3D12), CCR9-FITC (112509) (R&D Systems, Minneapolis, MN, USA), β7-PE-Cy5 (FIB504), and LIVE/DEAD Fixable Blue Dead Cell Stain Kit (Thermo Fisher Scientific); all antibodies were from BD Biosciences unless otherwise noted. Stained PBMCs were acquired on a LSR-II and data were analyzed with FlowJo software (TreeStar).

[6] = 3 days postinfusion, baseline 22
[7] = 4 days postinfusion, baseline 22

## C/C=C1\NC(=O)[C@H]2CSSCC/C=C/[C@H](CC(=O)N[C@H](C(C)C)C(=O)N2)OC(=O)[C@H](C(C)C)NC1=O [RMD, romidepsin]
[1]; 18 h postinfusion, baseline 22, normal range 14-94, not significant
  alanine aminotransferase (ALT): 98 U/L
[1]; 18 h postinfusion, baseline 39, normal range 31-108, p < 0.05
  aspartate aminotransferase (AST): 186 U/L
[1]; 3 days postinfusion, baseline 0.60
  creatinine: 0.63 mg/dL
[1]; [6]
  alanine aminotransferase (ALT): 89 U/L
  urea nitrogen: 29 mg/dL
[1]; 3 days postinfusion, baseline 39
  aspartate aminotransferase (AST): 101 U/L
[1]; 3 days postinfusion, baseline 702, normal 514 ± 187
  lactate dehydrogenase (LDH): 1,562 U/L
[1]; [7]
  alanine aminotransferase (ALT): 80 U/L
  urea nitrogen: 25 mg/dL
[1]; 4 days postinfusion, baseline 39
  aspartate aminotransferase (AST): 91 U/L
[1]; 4 days postinfusion, baseline 367
  creatinine kinase (CK): 1,740 U/L
[1]; 4 days postinfusion, baseline 702
  lactate dehydrogenase (LDH): 1,323 U/L
[1]; peak, 18 h postinfusion, baseline 0.60, normal range 0.5-1.2
  creatinine: 0.77 mg/dL
[1]; peak, 18 h postinfusion, baseline 22, normal range 8-25
  urea nitrogen: 35 mg/dL
[1]; peak, 18 h postinfusion, baseline 367, normal range 132-505, p < 0.05
  creatinine kinase (CK): 7,445 U/L
[2]
  terminal elimination half-life in clinical studies: 6.6 to 19 h
  terminal elimination half-life reported in humans: ~ 3.5 h
[3]
  AUC of CSF/plasma: 2%
[4]; 12 h postinfusion, p < 0.05
  CD8+ T cells in blood: 204 cells/μl
  CD4+ T cells in blood: 402 cells/μl
  total circulating lymphocytes: 1,463 cells/μl
[4]; 12 h postinfusion, baseline 3,273, normal 6.2 ± 2.4 × 10^3, not significant
  neutrophils in blood: 14,287 cells/μl
[4]; 1 day postinfusion, p < 0.05
  CD8+ T cells in blood: 178 cells/μl
  CD4+ T cells in blood: 496 cells/µl
[4]; 1 day postinfusion, baseline 3,273
  neutrophils in blood: 9,123 cell/µl
[4]; 2 days postinfusion, p < 0.05
  CD8+ T cells in blood: 204 cells/μl
  CD4+ T cells in blood: 366 cells/μl
  total circulating lymphocytes: 1,753 cells/μl
[4]; 5 days postinfusion (recovery)
  CD4+ T cells in blood: 1,305 cells/μl
[4]; 5 days postinfusion
  CD8+ T cells in blood: 634 cells/μl
[4]; 5 days postinfusion, baseline 3,273
  neutrophils in blood: 2,427 cells/μl
[4]; 7 days postinfusion (near full recovery)
  CD8+ T cells in blood: 741 cells/μl
[4]; RMD treated RMs, no change in saline control group
  B cells (CD3−CD20+) in blood: declined
[5]; 2 ng/ml RMD, day 2, baseline 50%, no RMD 66%
  CD3 expression (% of cells) on PBMCs: 48%
[5]; 2 ng/ml RMD, day 5, baseline 50%, no RMD 61%
  CD3 expression (% of cells) on PBMCs: 20%
[5]; 10 ng/ml RMD, day 2, baseline 50%, no RMD 66%
  CD3 expression (% of cells) on PBMCs: 30%
[5]; 10 ng/ml RMD, day 5, baseline 50%, no RMD 61%
  CD3 expression (% of cells) on PBMCs: 16%
[5]; 20 ng/ml RMD, day 2, baseline 50%, no RMD 66%
  CD3 expression (% of cells) on PBMCs: 32%
[5]; 20 ng/ml RMD, day 5, baseline 50%, no RMD 61%
  CD3 expression (% of cells) on PBMCs: 19%
[5]; day 1, all dosage treatments (2, 10, 20 ng/ml)
  CD3 expression (% of cells) on PBMCs: minimal changes
[5]; with increasing dosages of RMD (2, 10, 20 ng/ml), p < 0.05
  proportions of CD4− CD8− CD3+ T cells: increased proportions
